US4413005A, “Carbamate derivatives and insecticidal, miticidal or nematocidal compositions containing the same” (priority 1981, dated 1983)
Where two headings read alike, the source gives them in different places.

Tests used:
[1] = tested on: green rice leafhopper (Nephotettix cincticeps); test: Mortality of female adults of green rice leafhopper on paddy rice (Test Example 2); format: in vivo; settings: 72 h
Experimental: An emulsion of specified concentration was prepared from a 50% wettable powder of the compound to be tested and applied to the leaves of paddy rice (one-month-old seedlings) planted in a pot to fully wet the leaves. After the emulsion had been dried, the pot was covered with a net cage, into which 10 female adults of green rice leafhopper (Nephotettix cincticeps) were released. The compound of each specified concentration was tested on two pots.

[2] = tested on: tobacco cutworm (Spodoptera litura); test: Mortality of third-instar larvae of tobacco cutworm on cabbage (Test Example 1); format: in vivo
Experimental: Ten third-instar larvae of tobacco cutworm (Spodoptera litura) were placed on a cabbage (one-month-old seedling) planted in a pot, and a 50% emulsion of the compound to be tested was diluted to a specified concentration and applied to the leaves of the plant to fully wet them. The test compound of each specified concentration was tested on two pots.

[3] = tested on: house fly (Musca domestica); test: Local application to house fly, LD50 by Probit method (Test Example 4); format: in vivo; settings: topical, 24 h
Experimental: The compound to be tested was dissolved in a predetermined amount of acetone. The solution was diluted to various concentrations and locally applied to house fly (Musca domestica).

[4] = Acute oral toxicity in male mice, LD50 by Litchfield-Wilcoxon method (Test Example 5); settings: mouse, in vivo, mortality on the seventh day
Experimental: Compounds of this invention were tested on male mice for acute toxicity by oral administration.

Row | SMILES | mortality at 200 ppm ([1]; 200 ppm active ingredient, from 50% wettable powder, three days later, read-out: Mortality) [%] | mortality at 400 ppm ([1]; 400 ppm active ingredient, from 50% wettable powder, three days later, read-out: Mortality) [%] | mortality at 800 ppm ([1]; 800 ppm active ingredient, from 50% wettable powder, three days later, read-out: Mortality) [%] | mortality at 500 ppm ([2]; 72 h, 500 ppm active ingredient, 50% emulsion diluted, three days later, read-out: Mortality) [%] | mortality at 1000 ppm ([2]; 72 h, 1,000 ppm active ingredient, 50% emulsion diluted, three days later, read-out: Mortality) [%] | mortality at 2000 ppm ([2]; 72 h, 2,000 ppm active ingredient, 50% emulsion diluted, three days later, read-out: Mortality) [%] | LD50 [3] [mg/kg] | LD50 at 168 h [4] [mg/kg] | mortality at 200 ppm [1] [%] | mortality at 400 ppm [1] [%] | mortality at 800 ppm [1] [%] | mortality at 500 ppm ([2]; 72 h) [%] | mortality at 1000 ppm ([2]; 72 h) [%] | mortality at 2000 ppm ([2]; 72 h) [%]
1 | CCOC(=O)CCN(SN(C)C(=O)Oc1cccc2c1OC(C)(C)C2)C(C)C [Example 23, 2,3-Dihydro-2,2-dimethylbenzofuran-7-yl N-(N-isopropyl-N-ethoxycarbonylethylaminosulfenyl)-N-methylcarbamate] | 55 | 85 | 100 | 70 | 85 | 100 | 44.3 | 113 | – | – | – | – | – | –
2 | COC(=O)CCN(SN(C)C(=O)Oc1cccc2c1OC(C)(C)C2)C(C)C [Example 24] | – | – | – | – | – | – | 38.6 | 77 | 60 | 90 | 100 | 75 | 85 | 100
3 | CCCCOC(=O)CCN(SN(C)C(=O)Oc1cccc2c1OC(C)(C)C2)C(C)C [Example 25] | – | – | – | – | – | – | 50.1 | 123 | 65 | 90 | 100 | 75 | 90 | 100
4 | CCCCC(CC)COC(=O)CCN(SN(C)C(=O)Oc1cccc2c1OC(C)(C)C2)C(C)C (stereo not drawn) [Example 26] | – | – | – | – | – | – | 64.7 | 150 | 55 | 75 | 100 | 60 | 80 | 100
5 | CCCCN(CCC(=O)OCC)SN(C)C(=O)Oc1cccc2c1OC(C)(C)C2 [Example 27, 2,3-Dihydro-2,2-dimethylbenzofuran-7-yl N-(N-n-butyl-N-ethoxycarbonylethylaminosulfenyl)-N-methylcarbamate] | – | – | – | – | – | – | 13.8 | 105 | 65 | 90 | 100 | 75 | 90 | 100
6 | CCCCN(CCC(=O)OC)SN(C)C(=O)Oc1cccc2c1OC(C)(C)C2 [Example 28] | – | – | – | – | – | – | 17.7 | 89 | 65 | 90 | 100 | 75 | 90 | 100
7 | CCOC(=O)CCN(SN(C)C(=O)Oc1cccc2c1OC(C)(C)C2)C(C)CC (stereo not drawn) [Example 29] | – | – | – | – | – | – | 22.5 | 120 | 45 | 75 | 100 | 60 | 80 | 100
8 | CCOC(=O)CCN(CC(C)C)SN(C)C(=O)Oc1cccc2c1OC(C)(C)C2 [Example 30] | – | – | – | – | – | – | 23.8 | 133 | 60 | 80 | 100 | 65 | 85 | 100
9 | CCCCCCN(CCC(=O)OCC)SN(C)C(=O)Oc1cccc2c1OC(C)(C)C2 [Example 31] | – | – | – | – | – | – | 33.1 | 135 | 55 | 75 | 100 | 60 | 80 | 100
10 | CCOC(=O)CCN(SN(C)C(=O)Oc1cccc2c1OC(C)(C)C2)C1CCCCC1 [Example 32, 2,3-Dihydro-2,2-dimethylbenzofuran-7-yl N-(N-cyclohexyl-N-ethoxycarbonylethylaminosulfenyl)-N-methylcarbamate] | – | – | – | – | – | – | 32.7 | 107 | 55 | 75 | 100 | 65 | 80 | 100
11 | CCCCN(CC#N)SN(C)C(=O)Oc1cccc2c1OC(C)(C)C2 [Example 33, 2,3-dihydro-2,2-dimethylbenzofuran-7-yl N-(N-butyl-N-cyanomethylaminosulfenyl)-N-methyl-carbamate] | – | – | – | – | – | – | 9.1 | 103 | 70 | 90 | 100 | 75 | 90 | 100
12 | CC(C)N(CC#N)SN(C)C(=O)Oc1cccc2c1OC(C)(C)C2 [Example 34] | – | – | – | – | – | – | 16.7 | 95 | 65 | 90 | 100 | 75 | 90 | 100
13 | CN(SN(CC#N)c1ccccc1)C(=O)Oc1cccc2c1OC(C)(C)C2 [Example 35] | – | – | – | – | – | – | 65.6 | 95 | 60 | 75 | 95 | 65 | 80 | 100
14 | Cc1ccc(N(CC#N)SN(C)C(=O)Oc2cccc3c2OC(C)(C)C3)cc1 [Example 36] | – | – | – | – | – | – | 59.3 | 70 | 60 | 75 | 95 | 65 | 80 | 100
15 | CN(CCC#N)SN(C)C(=O)Oc1cccc2c1OC(C)(C)C2 [Example 37] | – | – | – | – | – | – | 11.8 | 65 | 65 | 85 | 100 | 70 | 85 | 100
16 | CC(C)N(CCC#N)SN(C)C(=O)Oc1cccc2c1OC(C)(C)C2 [Example 38] | – | – | – | – | – | – | 17.5 | 125 | 70 | 90 | 100 | 75 | 90 | 100
17 | CCCCN(CCC#N)SN(C)C(=O)Oc1cccc2c1OC(C)(C)C2 [Example 39, 2,3-Dihydro-2,2-dimethylbenzofuran-7-yl N-(N-n-butyl-N-cyanoethylaminosulfenyl)-N-methyl-carbamate] | – | – | – | – | – | – | 13.7 | 110 | 70 | 90 | 100 | 75 | 90 | 100
18 | CC(C)CN(CCC#N)SN(C)C(=O)Oc1cccc2c1OC(C)(C)C2 [Example 40] | – | – | – | – | – | – | 37.9 | 103 | 70 | 85 | 100 | 75 | 85 | 100
19 | CCCCCCCCN(CCC#N)SN(C)C(=O)Oc1cccc2c1OC(C)(C)C2 [Example 41] | – | – | – | – | – | – | 54.6 | 105 | 60 | 75 | 95 | 65 | 80 | 100
20 | CN(SN(CCC#N)C1CCCCC1)C(=O)Oc1cccc2c1OC(C)(C)C2 [Example 42] | – | – | – | – | – | – | 46 | 88 | 65 | 85 | 100 | 70 | 85 | 100
21 | CCOC(=O)CN(SN(C)C(=O)Oc1cccc2c1OC(C)(C)C2)C(=O)CC [Example 43, 2,3-dihydro-2,2-dimethylbenzofuran-7-yl N-(N-propionyl-N-ethoxycarbonylmethylaminosulfenyl)-N-methyl-carbamate] | – | – | – | – | – | – | 14.4 | 43 | 60 | 85 | 100 | 70 | 85 | 100
22 | CCOC(=O)CN(SN(C)C(=O)Oc1cccc2c1OC(C)(C)C2)C(=O)OCC [Example 44, 2,3-dihydro-2,2-dimethylbenzofuran-7-yl N-(N-ethoxycarbonyl-N-ethoxycarbonylmethylaminosulfenyl)-N-methyl-carbamat] | – | – | – | – | – | – | 16.2 | 128 | 70 | 90 | 100 | 75 | 90 | 100
23 | CCOC(=O)CN(SN(C)C(=O)Oc1cccc2c1OC(C)(C)C2)C(=O)CCl [Example 45] | – | – | – | – | – | – | 29.2 | 80 | 65 | 90 | 100 | 75 | 90 | 100
24 | CCOC(=O)CN(SN(C)C(=O)Oc1cccc2c1OC(C)(C)C2)C(=O)c1ccccc1 [Example 46] | – | – | – | – | – | – | 33.2 | 105 | 65 | 85 | 100 | 70 | 85 | 100
